Values of other authors in US7993684B2, “Method of inhibiting alveolar bone resorption and periodontal membrane loss and composition for internal use to be used therein” (Sunstar Inc., priority 2003, dated 2011).

Legend:
alveolar bone resorption = conditions: Japanese Unexamined Patent Publication No. 1996-133969
[1] = tested on: periodontal disease-causing bacteria; conditions: Japanese Unexamined Patent Publication No. 1992-283518

Compound	Inhibition of alveolar bone resorption related to periodontal disease (alveolar bone resorption)	Antibacterial activity against periodontal disease-causing bacteria [1]
calcium pantothenate	inhibit alveolar bone resorption	
O=c1c(-c2ccc(O)cc2)coc2cc(O)cc(O)c12 [genistein]		shows antibacterial activity
